Here are results for 1 molecule from patent US20090247495A1, “CU[…] AND USES THEREOF” (priority 2007, published 2009).

One test relates to Panc-1. Briefly: MTT cell cytotoxicity assay, Panc-1. The conditions noted are these: Homo sapiens. Format: cell-based. The protocol:
Three human pancreatic cancer cell lines (Panc-1, Panc 02.13, Panc 10.05) were purchased from American Type Culture Collection (ATCC, Manassas, Va., USA). Panc 02.13 and Panc 10.05 were grown in RPMI 1640 medium supplemented with 15% FBS, 4.5 g/L glucose, 10 mM HEPES, and 1.0 mM sodium pyruvate and 10 Units/ml human insulin; while PANC-1 was grown in Dulbecco's modified Eagle's medium supplemented with 10% FBS. They were maintained in a humidified 5% CO2 atmosphere at 37° C. and the culture medium was changed once in 2 days.
The cytotoxic effect of CuB on these three cancer cell lines were determined using MTT (3-[4,5-dimethylthiazol-2-yl]-2,5-diphenyl tetrazolium bromide) labeled cell cytotoxicity assay. A total of 1×10^4 cells were seeded into a 96-well plate for 24 hours prior to cucurbitacin B (CuB) treatment. They were then treated with different dosages of CuB for 48 hours. After the treatment, 20 μl of MTT (5 mg/ml) was added to each well and incubated for 4 hrs. Then the medium was discarded and 100 μl of dimethyl sulfoxide was added. The absorbance at 570 nm was then measured by FLUOstar OPTIMA equipment (BMG, LABTECH GmbH, Germany). The percentage of inhibition against different dosages of CuB were plotted using the Prism software and the 50% inhibition concentration (IC50) were obtained. […]

The subject of test [1] is HepG2-resistant (HepG2-R). Description: Hollow fiber assay, HepG2-resistant. Format: in vivo, nude mice. The conditions noted are these: up to 14 days. The protocol: The hollow fiber assay (HFA) was developed by the NCI as a high-throughput, preliminary in vivo screening assay for the evaluation of anti-cancer agents. Human liver cancer cell lines HepG2 and HepG2-resistant (HepG2-R) were in vitro cultured inside hollow fibers for a short term (48 hours), followed by in vivo implantation at s.c. sites of the nude mice. Mice were treated with negative control (0.5% CMC), positive control (10 mg/kg 5-Fluorouracil) and cucurbitacin B (0.2 mg/kg) for up to 14 days. Then the fibers were excised and analyzed for cell viability by MTT assay. The efficacies of cucurbitacin B against HepG2 and HepG2-R were expressed as the percentage of the results obtained in the negative control group.

For the next test, the system named is K562 cells. Description: Cell morphology by microscopy, K562. It counts as cell-based, human. The settings on record: 48 hours. The protocol: 10^5/ml K562 cells were treated with cucurbitacin B in the presence of complete medium containing 10% FBS for 48 hours. The changes in cell morphology were visualized using Leica DMIL (Leica Microsystem). Cells were harvested and rinsed twice with ice-cold PBS (pH7.4) and a total 2.5×10^5 K562 cells were stained with 10 μl Annexin V and 10 μl propidium iodide in 100 μl 1×binding buffer for 15 minutes in dark and then subjected to apoptosis analysis with FACSCalibar Flow cytometer system (FACS Calibur BD Flow Cytometer). • 6.1.5 Flow Cytometry for Cell Cycle Analysis
After 48 hours of cucurbitacin B treatment, the cells were viewed using a Leica DMIL microscope at 400×magnification. […] However, the treated cells lost the rounded shape and shrank in size at the highest dose of cucurbitacin B used (80nM).

Another test has as its system HL60 and U937 cells. Briefly: Cell differentiation: CD11b expression by flow cytometry. Format: cell-based, human. The conditions noted are these: 96-hour treatment. The protocol: HL60 and U937 cells were incubated with vary doses of cucurbitacin B for 96 hours at 37° C. For analysis of cell differentiaion, cells were then incubated with either R-phycoerythrin-conjugated murine anti-human CD11b antibody (DAKO, Carpinteria, Calif.). For analysis of cell cycle, cells were washed and fixed with chilled methanol, and incubated on ice for 30 minutes prior to staining with propidium iodide. All analyses were performed by flow cytometry.
Following a 96-hour treatment with cucurbitacin B, HL60 (FIG. 14A) and U937 (FIG. 14B) cells were incubated with RPE-conjugated CD11b-specific antibody (dark grey) or RPE-conjugated IgGI control antibody (light grey), and flow cytometry was performed.

Test [2] concerns Human cancer cell lines from the 59-NCI Cancer Cell Line Panel. Briefly: Apoptosis (Annexin V-FITC / PI) by flow cytometry, 18 selected NCI panel cell lines. Format: cell-based. The conditions noted are these: 48 hours; GI50, ½ GI50 and ¼ GI50. The protocol:
Apoptosis is the important mechanism for cell death in normal cells. In cancer cells, this mechanism fails and cells proliferate without control. Human cancer cell lines from the 59-NCI Cancer Cell Line Panel including leukemia, melanoma and cancers of breast, brain, colon, lung, ovary, prostate and kidney were purchased from the National Institute of Cancer. […] They were treated with cucurbitacin B and cucurbitacin D at three different concentrations to elucidate their ability to induce any changes in cell cycle.
Cancer cell lines were maintained in RPMI 1640 supplemented with 5% Fetal Bovine Serum, 2 mM L-glutamine and 1% Penicillin/Streptomycin at 37° C. with 5% CO2. Cells were inoculated into tissue culture flask at cell concentrations from 50000 to 400,000 cells/ml according to the NCI guideline. The cells were incubated at 37° C. with 5% CO2 for 24 hours. Cucurbitacin B and cucurbitacin D were added to the cells of final concentrations ranging from 6 to 350 nM (GI50, ½ GI50 and ¼ GI50 of particular cell line) for 48 hours at 37° C. with 5% CO2. Cells (3×10^5) were then harvested and stained with 5 μl Annexin V-FITC and 10 μl propidium iodine (Becton Dickinson, CA, USA) for 15 minutes at room temperature. Ten thousands events were collected by the FACScaliber and the percentage of different cell populations were analyzed by the CellQuest™ software (Becton Dickinson).

The test system of test [3] is human MDA-MB-231 breast cancer cells. Briefly: Orthotopic human breast cancer model in nude mice. It counts as in vivo. The protocol: One million human MDA-MB-231 breast cancer cells/Matrigel (vol 1:1) were inoculated isotopically into the breasts of nude mice. The mice received intraperitoneal injections of 1 mg/ml of cucurbitacin B 3 times a week starting on the day after inoculation of the cells. The longitudinal and the transverse diameter, and the height were measured once a week. The volume was calculated by multiplying these elements, and the relative tumor size was determined by dividing the product by the initial volume. After 6 weeks, the mice were sacrificed to weigh the dissected tumors. At that moment, blood was taken for analysis, where organs and tumors were inspected, dissected, fixed and stained with hematoxylin-eosin and/or Ki-67. Data were expressed as mean±SD. Statistical analysis was performed by student's t test.
Six weeks after i.p. treatment with either vehicle or cucurbitacin B 1 mg/kg three times a week, mice were euthanized and tumors were observed and weighed. Results represented the mean and SD of 9 treated and 9 control tumors. Statistical analysis was performed by student's t test.

For the molecule `CC(=O)OC(C)(C)/C=C/C(=O)[C@](C)(O)C1[C@H](O)C[C@@]2(C)C3CC=C4C(C[C@H](O)C(=O)C4(C)C)[C@]3(C)C(=O)C[C@]12C` (stereo partly shown) [cucurbitacin B], in the test on Panc-1 (MTT, 48 hours), the GI50 turned out to be 12.4 µM. In addition, the IC50 in the test with Panc-1 (read-out: IC50 (dose used for western blot)) worked out at 0.8 µM. For the same molecule, the “Cell growth rate compared with the negative control group” value in test [1] (0.2 mg/kg p.o.) is “about 75%”. The “cell growth in hollow fibers” value in test [1] (0.2 mg/kg, i.p., s.c. and p.o.) is “potently inhibited”. In addition, the “changes in cell morphology” value in the test on K562 cells (20 nM and 40 nM) was “increase in cell size”; in the test on K562 cells (80 nM) it was “shrinkage of cell size”. Further, the “expression of cell surface marker CD11b” value in the test on HL60 and U937 cells is “enhanced expression”. Besides, the “cell lines in which apoptosis was induced” value in test [2] is given as 9 out of 18. Besides, in test [3] (i.p. 1 mg/kg three times a week, six weeks), the “weight of dissected tumors vs vehicle treated mice” value is “weighed significantly less”. Further, in test [3] (intraperitoneal 1 mg/kg 3 times a week, 6 weeks), the “growth of MDA-MB-231 tumors compared with control” value was 50.1%.
